Measurements as given in patent EP0655065B1, “27-HYDROXYRAPAMYCIN AND DERIVATIVES THEREOF” (AMERICAN HOME PRODUCTS CORPORATION, priority 1992, dated 1994).
Several values for one entry are separate records, joined by “and”; a condition that tells them apart may be missing. Equal values may be shown once. Read-outs that look alike come from different tables or passages of the source.

Assays:
[1] = half life (stability) in 0.1 M phosphate buffer; type: physicochemical; conditions: for half-life: 0.1 m phosphate buffer, pH 7.4
Excerpt: The 27-hydroxyrapamycin derivatives of formulas II - X are also expected to resist ring degredative reactions better than rapamycin and 31- and/or 42- substituted rapamycin derivatives of rapamycin.

[2] = test system: cells from the thymus of normal BALB/c mice; assay: comitogen-induced thymocyte proliferation procedure (LAF); type: cell-based; conditions: for IC50: read-out: L A F (IC50)
Experimental: The comitogen-induced thymocyte proliferation procedure (LAF) was used as an in vitro measure of the immunosuppressive effects of representative compounds. Briefly, cells from the thymus of normal BALB/c mice are cultured for 72 hours with PHA and IL-1 and pulsed with tritiated thymidine during the last six hours. Cells are cultured with and without various concentrations of rapamycin, cyclosporin A, or test compound. Cells are harvested and incorporated radioactivity is determined. Inhibition of lymphoproliferation is assessed as percent change in counts per minute from non-drug treated controls. The results are expressed as an IC50.

[3] = test system: pinch skin graft from male DBA/2 donors transplanted to male BALB/c recipients; assay: pinch skin graft survival time; type: in vivo; conditions: mean graft survival time, intraperitoneally
Experimental: A representative compound of this invention was also evaluated in an in vivo test procedure designed to determine the survival time of pinch skin graft from male DBA/2 donors transplanted to male BALB/c recipients. […] Briefly, a pinch skin graft from the donor is grafted on the dorsum of the recipient as a homograft, and an autograft is used as control in the same region. The recipients are treated with either varying concentrations of cyclosporin A as test control or the test compound, intraperitoneally. Untreated recipients serve as rejection control. The graft is monitored daily and observations are recorded until the graft becomes dry and forms a blackened scab. This is considered as the rejection day. The mean graft survival time (number of days ± S.D.) of the drug treatment group is compared with the control group.

half life ([1]; 0.1 M phosphate buffer (pH 7.4, 37° C))	Compound	half-life [1]	inhibition at 0.1 µM ([2]; Mus musculus, T-cell, at 0.1 µM)	inhibition at 1 µM ([2]; Mus musculus, T-cell, at 1 µM)	IC50 ([2]; Mus musculus, Thymocyte, thymocytes cultured 72 hours with PHA and IL-1, tritiated thymidine incorporation)	Skin Graft (days + SD) ([3]; dose of 4 mg/kg, 4 mg/kg)	Skin Graft (days + SD) ([3]; dose of 16 mg/kg, 16 mg/kg)	IC50 ([2]; thymocytes cultured 72 hours with PHA and IL-1, tritiated thymidine incorporation)	Skin Graft (days + SD) ([3]; dose of 4 mg/kg)	IC50 ([2]; Mus musculus, Thymocyte, 72 h)
	CO[C@H]1C[C@@H]2CC[C@@H](C)[C@@](O)(O2)C(=O)C(=O)N2CCCC[C@H]2C(=O)O[C@H]([C@H](C)C[C@@H]2CC[C@@H](O)[C@H](OC)C2)CC(OC(C)=O)[C@H](C)/C=C(\C)[C@@H](O)[C@@H](OC)C(=O)[C@H](C)C[C@H](C)/C=C/C=C/C=C/1C (some centres unmarked) [Example 5, 27-Hydroxyrapamycin-27-ester with acetic acid]	34 h	69%	94%	99 nM					
17.5 h	27-Hydroxyrapamycin					8.5 ± 1.2 days and 8.17 ± 0.75 days and 8.00 ± 0.63 days	9.17 ± 0.98^+ days and 9.17 ± 0.75^+ days	3.7 nM		
	CO[C@H]1C[C@@H]2CC[C@@H](C)[C@@](O)(O2)C(=O)C(=O)N2CCCC[C@H]2C(=O)O[C@H]([C@H](C)C[C@@H]2CC[C@@H](O)[C@H](OC)C2)CC(=O)[C@H](C)/C=C(\C)[C@@H](O)[C@@H](OC)C(=O)[C@H](C)C[C@H](C)/C=C/C=C/C=C/1C [Rapamycin]	11.8 h							12.0 ± 1.7 days	4.8 nM
